SMILES strings stand for the structures.

The text below walks through data of patent US10221172B2, “Benzothiazole and benzisothiazole-substituted compounds as mGluR4 allosteric potentiators, compositions, and methods of treating neurological dysfunction” (Vanderbilt University, priority 2015, dated 2019).

The assay addresses human mGluR4 (Homo sapiens (Human), UniProt Q14833). Briefly: mGluR4 potentiation assay, CHO cells transfected with human mGluR4, Ca2+-sensitive dye, EC20 agonist. The following applies: potentiation of mGluR4. The assay is classed as cell-based. On the procedure:
The disclosed compounds and compositions can be evaluated for their ability to act as a potentiator of metabotropic glutamate receptor activity, in particular mGluR4 activity, by any suitable known methodology known in the art. For example, Chinese Hamster Ovary (CHO) cells transfected with human mGluR4 or HEK cells co-transfected with rat mGluR4 and the G-protein regulated Inwardly Rectifying Potassium channel (GIRK) were plated in clear bottom assay plates for assay in a Hamamatsu FDSS Fluorometric Plate Reader. The cells were loaded with either a Ca2+-sensitive fluorescent dye or the thallium responsive dye and the plates were washed and placed into a suitable kinetic plate reader. For human mGluR4 assays, a fluorescence baseline was established for 3-5 seconds, the disclosed compounds were then added to the cells, and the response in cells was measured. Approximately two and a half minutes later, a concentration of mGluR4 orthosteric agonist (e.g. glutamate or L-AP4) eliciting approximately 20% (EC20) of the maximal agonist response was added to the cells, and the response was measured. Two minutes later, a concentration of mGluR4 agonist (e.g. glutamate or L-AP4) eliciting 80% (EC80) of the maximal agonist response was added to the cells, and the response was measured. For rat mGluR4/GIRK experiments, a baseline was established for approximately five seconds, disclosed compounds were added, and either an EC20 or EC80 concentration of agonist was added approximately two and one half minutes later. Potentiation of the agonist response of mGluR4 by the disclosed compounds was observed as an increase in response to the EC20 concentration of agonist in the presence of compound compared to the response to agonist in the absence of compound. Similarly, antagonism of the agonist response of mGluR4 by the disclosed compounds was observed as a decrease in response to the EC80 concentration of agonist in the presence of compound compared to the response to agonist in the absence of compound.
The above described assay operated in two modes. In the first mode, a range of concentrations of the disclosed compounds are added to cells, followed by a single fixed concentration of agonist. If the compound acts as a potentiatior, an EC50 value for potentiation and a maximum extent of potentiation by the compound at this concentration of agonist is determined by non-linear curve fitting. If the compound acts as a noncompetitive antagonist, an IC50 value is determined by non-linear curve fitting. In the second mode, several fixed concentrations of the disclosed compounds are added to various wells on a plate, followed by a range in concentrations of agonist for each concentration of disclosed compound. The EC50 values for the agonist at each concentration of compound are determined by non-linear curve fitting. A decrease in the EC50 value of the agonist with increasing concentrations of the sample compound (a leftward shift of the agonist concentration-response curve) is an indication of the degree of mGluR4 potentiation at a given concentration of the sample compound. A decrease in the maximal response of the agonist with increasing concentrations of the sample compounds, with or without a rightward shift in agonist potency, is an indication of the degree of noncompetitive antagonism at mGluR4. The second mode also indicates whether the sample compounds also affect the maximum response to mGluR4 to agonists.

The mark [1] stands for this setting: main compound table, species not given.
Setting [2] is: summary list repeated at the end of the table, species not stated.

Chain of human mGluR4 (Q14833 33-912): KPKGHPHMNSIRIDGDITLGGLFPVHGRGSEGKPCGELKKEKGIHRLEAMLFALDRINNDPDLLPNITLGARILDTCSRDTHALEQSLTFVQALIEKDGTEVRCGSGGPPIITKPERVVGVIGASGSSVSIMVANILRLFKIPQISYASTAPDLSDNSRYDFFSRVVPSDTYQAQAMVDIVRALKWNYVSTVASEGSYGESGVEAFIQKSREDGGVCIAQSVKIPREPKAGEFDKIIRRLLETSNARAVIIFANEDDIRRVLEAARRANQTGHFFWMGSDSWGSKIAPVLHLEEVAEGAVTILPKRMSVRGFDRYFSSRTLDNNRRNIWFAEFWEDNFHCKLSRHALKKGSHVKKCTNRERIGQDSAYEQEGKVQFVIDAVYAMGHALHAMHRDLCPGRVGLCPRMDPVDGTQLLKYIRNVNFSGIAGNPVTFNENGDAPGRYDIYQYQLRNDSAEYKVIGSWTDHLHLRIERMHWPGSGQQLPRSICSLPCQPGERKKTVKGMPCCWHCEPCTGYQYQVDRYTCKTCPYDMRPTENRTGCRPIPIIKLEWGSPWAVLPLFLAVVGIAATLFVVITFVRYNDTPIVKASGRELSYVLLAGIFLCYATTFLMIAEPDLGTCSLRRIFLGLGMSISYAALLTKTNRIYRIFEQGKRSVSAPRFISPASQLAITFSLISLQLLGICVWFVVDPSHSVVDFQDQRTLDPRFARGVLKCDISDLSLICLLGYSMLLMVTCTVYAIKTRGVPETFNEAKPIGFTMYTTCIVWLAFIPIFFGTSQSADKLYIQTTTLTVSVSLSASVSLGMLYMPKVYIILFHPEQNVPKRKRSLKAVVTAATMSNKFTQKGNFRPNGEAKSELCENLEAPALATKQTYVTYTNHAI

In the case of `CC(=O)N1CCC(c2nsc3cc(Nc4n[nH]c5nccnc45)ccc23)CC1` [Example 63, 1-(4-(6-((1H-pyrazolo [3,4-b]pyrazin-3-yl)amino)benzo[d]isothiazol-3-yl)piperidin-1-yl)ethan-1-one], the EC50 (usually the concentration that produces a half-maximal response) came to 154 nM under setting [1] and 154 nM under setting [2].

In the case of `CC1CN(C(=O)c2nsc3cc(Nc4n[nH]c5cccnc45)ccc23)CC(C)O1` (centres unmarked) [Example 7, (6-((1H-pyrazolo [4,3-b]pyridin-3-yl)amino)benzo[d]isothiazol-3-yl) (2,6-dimethyl-morpholino) methanone], the EC50 by setting is: under setting [1], 306 nM; under setting [2], 306 nM. In the case of `CC1CC(C)CN(C(=O)c2nsc3cc(Nc4n[nH]c5cccnc45)ccc23)C1` (centres unmarked) [Example 18, (6-((1H-pyrazolo [4,3-b]pyridin-3-yl)amino)benzo[d]isothiazol-3-yl)(3,5-dimethylpiperidin-1-yl) methanone], the EC50 under setting [1] is 517 nM and the EC50 under setting [2] was found to be 517 nM. On to `CC(C)(C)Cc1nsc2cc(Nc3n[nH]c4nccnc34)cnc12` [Example 27, 3-neopentyl-N-(1H-pyrazolo[3,4-b]pyrazin-3-yl) isothiazole[4,5-b] pyridin-6-amine], for which the EC50 is, setting by setting: under setting [1], 99.5 nM; under setting [2], 99.5 nM. Consider `CN(Cc1nsc2cc(Nc3n[nH]c4ncccc34)cnc12)C1CC(F)(F)C1` [Example 53, 3-(((3,3-difluorocyclobutyl) (methyl)amino)methyl)-N-(1H-pyrazolo[3,4-b]pyridin-3-yl)isothiazolo[4,5-b]pyridin-6-amine], for which the EC50 by setting is: under setting [1], 568 nM; under setting [2], 568 nM. Consider `O=C(c1nsc2cc(Nc3n[nH]c4cccnc34)ccc12)N1CCC(F)(F)CC1` [Example 5, (6-((1H-pyrazolo[4,3-b]pyridin-3-yl)amino)benzo[d]isothiazol-3-yl) (4,4-difluoropiperidin-1-yl) methanone], for which the EC50 runs as follows: under setting [1], 60 nM; under setting [2], 60 nM.

For `CN(Cc1nsc2cc(Nc3n[nH]c4cccnc34)cnc12)C1CC(F)(F)C1` [Example 52, 3-(((3,3-difluoro-cyclobutyl) (methyl)amino)methyl)-N-(1H-pyrazolo[4,3-b]pyridin-3-yl)isothiazolo[4,5-b] pyridin-6-amine], the EC50 under setting [1] was found to be 334 nM and the EC50 under setting [2] was found to be 334 nM. For the compound `O=C(c1nsc2cc(Nc3n[nH]c4cccnc34)ccc12)N1CCN2CCCC2C1` (centres unmarked) [Example 13, (6-((1H-pyrazolo [4,3-b]pyridin-3-yl)amino)benzo[d]isothiazol-3-yl)(hexahydropyrrolo [1,2-a]pyrazin-2(1H)-yl)methanone], the EC50 runs as follows: under setting [1], 1610 nM; under setting [2], 1610 nM. On to `CC(C)(C)c1nsc2cc(Nc3n[nH]c4cccnc34)ccc12` [Example 25, 3-(tert-butyl)-N-(1H-pyrazolo[4,3-b]pyridin-3-yl)benzo[d]isothiazol-6-amine], for which the EC50 under setting [2] is 329 nM.

Regarding `C[C@H]1CN(Cc2nsc3cc(Nc4n[nH]c5cccnc45)cnc23)CCO1` [Example 59, (S)-3-((2-methylmorpholino)methyl)-N-(1H-pyrazolo[4,3-b]pyridin-3-yl)isothiazolo[4,5-b] pyridin-6-amine], the EC50 by setting is: under setting [1], 353 nM; under setting [2], 353 nM.

Take `FC1(F)CCN(Cc2nsc3cc(Nc4n[nH]c5cccnc45)cnc23)CC1` [Example 50, 3-((4,4-difluoropiperidin-1-yl)methyl)-N-(1H-pyrazolo[4,3-b]pyridin-3-yl) isothiazolo[4,5-b]pyridin-6-amine]: the EC50 by setting is: under setting [1], 81.1 nM; under setting [2], 81.1 nM. On to `O=C(c1nsc2cc(Nc3n[nH]c4cccnc34)ccc12)N1CCCC1` [Example 10, (6-((1H-pyrazolo [4,3-b]pyridin-3-yl)amino)benzo[d]isothiazol-3-yl) (pyrrolidin-1-yl) methanone], for which the EC50 came out at 1340 nM under setting [1] and 1340 nM under setting [2].
